Source: patent publication US9937235B2, “Lipidated peptides as anti-obesity agents” (USTAV ORGANICKE CHEMIE A BIOCHEMIE AKADEMIE VED CR, V.V.I, priority 2012, dated 2018)
Where a SMILES comes first, the peptide text is derived from it. Where no end group is shown, it is not given here. [ ]: non-standard residue; d: D form. The star is where a group is joined. 1Nal = N[C@@H](Cc1cccc2ccccc12)C(=O)O; Myristoyl = CCCCCCCCCCCCCC(=O)*; Nle = CCCC[C@H](N)C(=O)O; Octanoyl = CCCCCCCC(=O)*; Dap = NC[C@H](N)C(=O)O

Legend:
[1] = target: T1, rat PrRP receptor (GPR10) in RC-4B/C cells (Rattus norvegicus, UniProt Q64121); assay: Competitive binding to rat pituitary RC-4B/C cells; conditions: ^125I-rat PrRP31, RC-4B/C cells
T1 construct: host or cells: RC-4B/C rat pituitary cell line
T1 sequence (Q64121 1-370): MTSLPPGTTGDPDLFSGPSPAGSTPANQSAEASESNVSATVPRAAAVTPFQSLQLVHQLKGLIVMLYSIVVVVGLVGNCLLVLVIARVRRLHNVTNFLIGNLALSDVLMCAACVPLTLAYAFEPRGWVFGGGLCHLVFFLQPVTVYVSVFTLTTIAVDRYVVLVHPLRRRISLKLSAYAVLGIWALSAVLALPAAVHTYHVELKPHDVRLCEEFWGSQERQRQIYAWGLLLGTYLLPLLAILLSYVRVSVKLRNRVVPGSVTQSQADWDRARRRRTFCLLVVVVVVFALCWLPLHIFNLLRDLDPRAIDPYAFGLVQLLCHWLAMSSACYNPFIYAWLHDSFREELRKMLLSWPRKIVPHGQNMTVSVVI

fasted C57BL/6 mice [2] = assay: Food intake in fasted mice after SC administration; type: in vivo, mouse; conditions: for food intake / % control: SC administration; for % control: food intake vs saline
Procedure, shortened: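 Male C57BL/6 mice, food-deprived 17 h, received saline, PrRP or lipidated analogs either SC at 1-10 mg/kg or ICV into the third ventricle at 4 nmol/mouse.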

fasted C57BL/6 mice [3] = assay: Food intake in fasted mice after ICV administration; type: in vivo; conditions: 4 nmol/mouse; for % control: food intake vs saline
Procedure: Male C57BL/6 mice (An Lab, Prague 4) were bred in the accredited animal facility in the Institute of Organic Chemistry and Biochemistry, Czech Academy of Sciences, Prague, at the Institute of Molecular Genetics, Prague 4, at the temperature of 22±2° C. with access to food and water ad libitum. The day/night cycle was 12/12 hours (light turned on at 6:00 am). Animals were treated according to the Animal Protection Act (Act No. 246/1992). The males were fed standard chow diet St-1 (Mlýn Kocanda, Praha, Czech Republic) which contained 66% saccharides, 25% proteins and 9% lipids with a caloric value of 3.4 kcal/g.
The food was withdrawn 17 hours prior to injection of lipidated peptide and free access to water was maintained. The administration of saline, PrRP or lipidated analogs was performed either by SC injection at doses of 1-10 mg/kg (volume 0.2 ml/mouse), or by ICV using infusion pump (cannulae were inserted into the third brain ventricle 4 days before the experiment following the procedure of Maixnerová et al. (Maixnerová et al., 2011)). The single dose of peptide was 4 nmol/mouse (5 μl/mouse).
Fifteen minutes after the lipidated peptide administration, the mice were given pre-weighed food. The food was then weighed every 30 minutes for 5-10 hours. The administration of every dose was performed at least twice and one group of mice consisted of at least 6 mice. The results were presented as % of food intake as compared with the control group injected with saline.
Statistical evaluation was performed using program Graph-Pad Prism Software (San Diego, Calif., USA), and the one-way ANOVA with a subsequent Dunnettovým post-hoc test. The difference in food intake between mice injected with saline and mice injected with the examined peptide were considered statistically significant at P<0.05.

[4] = test system: MAPK/ERK1/2 signaling pathway in RC-4B/C cells; assay: MAPK/ERK1/2 signaling in RC-4B/C cells (Western blot); type: cell-based, rat; conditions: 10^−6 mol·l^−1, 5 minute incubation
Procedure: RC-4B/C cells, which were used to determine if lipidated PrRP20 analogs are able to initiate the MAPK/ERK1/2 signaling pathway, were grown in 6-well plates up to the optimal density of […]. Seventeen hours before sample harvest, the growth medium was replaced by a serum-free medium lacking epidermal growth factor (EGF). The respective lipidated PrRP analog was added to each well in the final concentration of 10^−6 mol·l^−1. After a 5 minute incubation at 37° C., the plate was placed on ice and each well was rinsed three times with PBS pH 7.4 (137 mmol·l^−1 NaCl, 2.7 mmol·l^−1 KCl, 8 mmol·l^−1 Na2HPO4.2H2O a 1.76 mmol·l^−1 KH2PO4) and cooled to 4° C. […] Samples were collected in at least three independent experiments.
To determine if the lipidated PrRP20 analogs initiated the MAPK/ERK1/2 signaling pathway, Western blot analysis was used. Electrophoresis was performed on 5%/12% polyacrylamide gel in the presence of SDS (SDS-PAGE) on the instrument MiniProtean 3 (BioRad, Herkules, Calif., USA). Samples that were loaded on the gel were first disintegrated by ultrasound, then heated at 100° C. for 2 minutes, and centrifuged for 5 minutes at 500×g at room temperature. […] Electrophoresis was performed at a constant voltage of 100 V for 10 minutes, or for 60 minutes at 150 V.
To show the presence of phosphorylated proteins in the samples, the proteins from the SDS-PAGE gel were transferred to the Immobilon™-P PVDF (polyvinylidene difluoride) membrane (Sigma-Aldrich, USA). The transfer was performed in blotting buffer at pH 8.3 (25 mmol·l^−1 Tris, 192 mmol·l^−1 glycine and 20% methanol) for 20 hours at 4° C. at a constant voltage of 30 V.
After the protein transfer to the PVDF membrane, the membranes were washed for 5 minutes in TBS washing buffer (20 mmol·l^−1 Tris, 140 mmol·l^−1 NaCl and 0.1% Tween-20) and then incubated for 1 hour in blocking buffer (TBS with 5% non-fat milk powder and 5 mmol·l^−1 Na3VO4 and 50 mmol·l^−1 NaF) at room temperature. Further, the membranes were washed three times for 5 minutes using the TBS washing buffer. The membranes were then incubated with the primary antibody against phospho-p44/42 MAPK(Thr202/Tyr204) (Cell Signaling Technology, Beverly, USA) which was diluted in blocking buffer at 1:1000. After the next three washes with the TBS washing buffer for 5 minutes, the membranes were incubated for 1 hour with rabbit secondary antibody labeled with peroxidase (Sigma, St. Louis, USA) which was diluted in blocking buffer at 1:12,000.
The membranes were then washed three times in TBS washing buffer for 5 minutes and then the solution Femto (Pierce SuperSignal, Thermo Fisher Scientific, Rockford, Ill., USA) was applied. The induced chemiluminiscence was detected by a CCD camera (LAS 3000, Fuji Photo Film GmBH, Düsseldorf, Germany).
To assess the initiation of signaling pathways, a densitometric analysis using the program Quantity One (BioRad, Hercules, Calif., USA) was used. For statistical evaluation of the statistically significant response of the cellular signaling, one-way ANOVA with subsequent Dunnett post-hoc test was used. Data was statistically significant at P<0.05.

[5] = 45 minutes, dose not stated for these substances
[6] = 300 minutes, dose not stated for these substances

With “TPDINPAWYTGRGIRPVGRF-NH2 [PrRP20, reference compound]” the “% of PrRP31 binding” value [1] was 143%, the “food intake” value (fasted C57BL/6 mice [2]; [5]) was 0.32 g and the “% control” value (fasted C57BL/6 mice [2]; [5]) was 100%. The “food intake” value (fasted C57BL/6 mice [2]; [6]) was 1.1 g, the “% control” value (fasted C57BL/6 mice [2]; [6]) was 100% and the “food intake” value (fasted C57BL/6 mice [3]; 45 minutes) was 0.32 g. The “% control” value (fasted C57BL/6 mice [3]; 45 minutes) was 68%, the “food intake” value (fasted C57BL/6 mice [3]; 300 minutes) was 1.29 g and the “% control” value (fasted C57BL/6 mice [3]; 300 minutes) was 100%. For the same compound, the ERK signaling [4] was “agonist”.

With CCCCCCCC(=O)NC[C@H](N)C(=O)N[C@@H](CCCNC(=N)N)C(=O)N[C@@H](C)C(=O)N[C@@H](Cc1c[nH]cn1)C(=O)N[C@@H](CCC(N)=O)C(=O)N[C@@H](Cc1c[nH]cn1)C(=O)N[C@@H](CO)C(=O)N[C@@H](CCCC)C(=O)N[C@@H](CCC(=O)O)C(=O)N[C@H](C(=O)N[C@@H](CCCNC(=N)N)C(=O)N[C@H](C(=O)N1CCC[C@H]1C(=O)N[C@@H](CC(=O)O)C(=O)N[C@H](C(=O)N[C@@H](CC(N)=O)C(=O)N1CCC[C@H]1C(=O)N[C@@H](C)C(=O)N[C@@H](Cc1c[nH]c2ccccc12)C(=O)N[C@@H](Cc1ccc(O)cc1)C(=O)N[C@H](C(=O)NCC(=O)N[C@@H](CCCNC(=N)N)C(=O)NCC(=O)N[C@H](C(=O)N[C@@H](CCCNC(=N)N)C(=O)N1CCC[C@H]1C(=O)N[C@H](C(=O)NCC(=O)N[C@@H](CCCNC(=N)N)C(=O)N[C@@H](Cc1cccc2ccccc12)C(N)=O)C(C)C)[C@@H](C)CC)[C@@H](C)O)[C@@H](C)CC)[C@@H](C)O)[C@@H](C)O [Analog 8] (H-[Dap](Octanoyl)RAHQHS[Nle]ETRTPDINPAWYTGRGIRPVGR[1Nal]-NH2) the “% of PrRP31 binding” value [1] was 13%, the “food intake” value (fasted C57BL/6 mice [2]; [5]) was 0.17 g and the “% control” value (fasted C57BL/6 mice [2]; [5]) was 76%. The “food intake” value (fasted C57BL/6 mice [2]; [6]) was 0.78 g, the “% control” value (fasted C57BL/6 mice [2]; [6]) was 90% and the “food intake” value (fasted C57BL/6 mice [3]; 45 minutes) was 0.34 g. For the same compound, the “% control” value (fasted C57BL/6 mice [3]; 45 minutes) was 60%, the “food intake” value (fasted C57BL/6 mice [3]; 300 minutes) was 1.05 g and the “% control” value (fasted C57BL/6 mice [3]; 300 minutes) was 79%. For the same compound, the ERK signaling [4] was “agonist”.

In the case of CCCC[C@H](NC(=O)[C@H](CO)NC(=O)[C@H](Cc1c[nH]cn1)NC(=O)[C@H](CCC(N)=O)NC(=O)[C@H](Cc1c[nH]cn1)NC(=O)[C@H](C)NC(=O)[C@H](CCCNC(=N)N)NC(=O)[C@@H](N)CN)C(=O)N[C@@H](CCC(=O)O)C(=O)N[C@H](C(=O)N[C@@H](CCCNC(=N)N)C(=O)N[C@H](C(=O)N1CCC[C@H]1C(=O)N[C@@H](CC(=O)O)C(=O)N[C@H](C(=O)N[C@@H](CC(N)=O)C(=O)N1CCC[C@H]1C(=O)N[C@@H](C)C(=O)N[C@@H](Cc1c[nH]c2ccccc12)C(=O)N[C@@H](Cc1ccc(O)cc1)C(=O)N[C@H](C(=O)NCC(=O)N[C@@H](CCCNC(=N)N)C(=O)NCC(=O)N[C@H](C(=O)N[C@@H](CCCNC(=N)N)C(=O)N1CCC[C@H]1C(=O)N[C@H](C(=O)NCC(=O)N[C@@H](CCCNC(=N)N)C(=O)N[C@@H](Cc1ccccc1)C(N)=O)C(C)C)[C@@H](C)CC)[C@@H](C)O)[C@@H](C)CC)[C@@H](C)O)[C@@H](C)O [Analog 1] (H-[Dap]RAHQHS[Nle]ETRTPDINPAWYTGRGIRPVGRF-NH2), the “% of PrRP31 binding” value [1] is reported as 132%, the “food intake” value (fasted C57BL/6 mice [2]; 45 minutes, 10 mg/kg) is reported as 0.38 g and the “% control” value (fasted C57BL/6 mice [2]; 45 minutes, 10 mg/kg) is reported as 117%. For the same compound, the “food intake” value (fasted C57BL/6 mice [2]; 300 minutes, 10 mg/kg) was 1.05 g, the “% control” value (fasted C57BL/6 mice [2]; 300 minutes, 10 mg/kg) was 97% and the “food intake” value (fasted C57BL/6 mice [3]; 45 minutes) was 0.39 g. The “% control” value (fasted C57BL/6 mice [3]; 45 minutes) was 70%, the “food intake” value (fasted C57BL/6 mice [3]; 300 minutes) was 0.71 g and the “% control” value (fasted C57BL/6 mice [3]; 300 minutes) was 53%. For the same compound, the ERK signaling [4] was “agonist”.

For CCCCCCCCCCCCCC(=O)NC[C@H](N)C(=O)N[C@@H](CCCNC(=N)N)C(=O)N[C@@H](C)C(=O)N[C@@H](Cc1c[nH]cn1)C(=O)N[C@@H](CCC(N)=O)C(=O)N[C@@H](Cc1c[nH]cn1)C(=O)N[C@@H](CO)C(=O)N[C@@H](CCCC)C(=O)N[C@@H](CCC(=O)O)C(=O)N[C@H](C(=O)N[C@@H](CCCNC(=N)N)C(=O)N[C@H](C(=O)N1CCC[C@H]1C(=O)N[C@@H](CC(=O)O)C(=O)N[C@H](C(=O)N[C@@H](CC(N)=O)C(=O)N1CCC[C@H]1C(=O)N[C@@H](C)C(=O)N[C@@H](Cc1c[nH]c2ccccc12)C(=O)N[C@@H](Cc1ccc(O)cc1)C(=O)N[C@H](C(=O)NCC(=O)N[C@@H](CCCNC(=N)N)C(=O)NCC(=O)N[C@H](C(=O)N[C@@H](CCCNC(=N)N)C(=O)N1CCC[C@H]1C(=O)N[C@H](C(=O)NCC(=O)N[C@@H](CCCNC(=N)N)C(=O)N[C@@H](Cc1cccc2ccccc12)C(N)=O)C(C)C)[C@@H](C)CC)[C@@H](C)O)[C@@H](C)CC)[C@@H](C)O)[C@@H](C)O [Analog 9] (H-[Dap](Myristoyl)RAHQHS[Nle]ETRTPDINPAWYTGRGIRPVGR[1Nal]-NH2), the “% of PrRP31 binding” value [1] was 167%, the “dose dependence of the lowering of food intake” value (fasted C57BL/6 mice [2]; SC administration, 1, 2, 5 and 10 mg/kg, FIG. 5 and 6) was “dose dependent” and the “food intake” value (fasted C57BL/6 mice [2]; 45 minutes, 10 mg/kg) was 0.01 g. For the same compound, the “% control” value (fasted C57BL/6 mice [2]; 45 minutes, 10 mg/kg) was 2%, the “food intake” value (fasted C57BL/6 mice [2]; 300 minutes, 10 mg/kg) was 0.22 g and the “% control” value (fasted C57BL/6 mice [2]; 300 minutes, 10 mg/kg) was 25%. For the same compound, the “food intake” value (fasted C57BL/6 mice [3]; 45 minutes) was 0.28 g, the “% control” value (fasted C57BL/6 mice [3]; 45 minutes) was 51% and the “food intake” value (fasted C57BL/6 mice [3]; 300 minutes) was 1.03 g. The “% control” value (fasted C57BL/6 mice [3]; 300 minutes) was 78% and the ERK signaling [4] was “agonist”.
